Measured values taken from ChEMBL document CHEMBL6103559, “Marine actinomycetes-derived angucyclines and angucyclinones with biosynthesis and activity--past 10 years (2014-2023)” (Eur J Med Chem, 2025).
In brackets after ≈: the same amount, converted by molar mass. Blank lines part the entries; values can stand above or below the molecule they belong to.

Experiments:
[1] = system: K562; assay: Cytotoxicity against human K562 cells assessed as reduction in cell growth by MTT assay; type: functional, cell-based
[2] = system: ASPC1; assay: Cytotoxicity against human ASPC1 cells assessed as reduction in cell growth by MTT assay; type: functional, cell-based
[3] = system: MDA-MB-231; assay: Cytotoxicity against human MDA-MB-231 cells assessed as reduction in cell growth by MTT assay; type: functional, cell-based
[4] = system: H69AR; assay: Cytotoxicity against human NCI-H69AR cells assessed as reduction in cell growth by MTT assay; type: functional, cell-based
[5] = system: NCI-H69; assay: Cytotoxicity against human NCI-H69 cells assessed as reduction in cell growth by MTT assay; type: functional, cell-based
[6] = system: HCT-15; assay: Growth inhibition of human HCT-15 cells after 48 hrs by sulforhodamine B assay; type: functional
[7] = system: NCI-H23; assay: Growth inhibition of human NCI-H23 cells after 48 hrs by sulforhodamine B assay; type: functional
[8] = system: PC-3; assay: Growth inhibition of human PC-3 cells after 48 hrs by sulforhodamine B assay; type: functional
[9] = system: ACHN; assay: Growth inhibition of human ACHN cells after 48 hrs by sulforhodamine B assay; type: functional
[10] = system: MDA-MB-231; assay: Growth inhibition of human MDA-MB-231 cells after 48 hrs by sulforhodamine B assay; type: functional
[11] = system: NUGC-3; assay: Growth inhibition of human NUGC-3 cells after 48 hrs by sulforhodamine B assay; type: functional
[12] = system: Jurkat; assay: Cytotoxicity against human Jurkat T cells; type: functional, cell-based
[13] = system: Staphylococcus aureus; assay: Antimicrobial activity against methicillin-resistant Staphylococcus aureus assessed as reduction in microbial growth measured for 18 hrs; type: functional
[14] = system: Bacillus subtilis; assay: Antibacterial activity against Bacillus subtilis CMCC(B) 63501 assessed as reduction in microbial growth measured for 18 hrs; type: functional
[15] = system: Escherichia coli; assay: Antibacterial activity against Escherichia coli CMCC(B) 44102 assessed as reduction in microbial growth measured for 18 hrs; type: functional
[16] = system: Klebsiella pneumoniae; assay: Antibacterial activity against Klebsiella pneumoniae CMCC(B) 46117 assessed as reduction in microbial growth measured for 18 hrs; type: functional
[17] = system: Pseudomonas aeruginosa; assay: Antimicrobial activity against Pseudomonas aeruginosa CMCC(B) 10104 assessed as reduction in microbial growth measured for 18 hrs; type: functional
[18] = system: Staphylococcus aureus; assay: Antibacterial activity against methicillin-resistant Staphylococcus aureus assessed as reduction in microbial growth by CLSI based broth microdilution method; type: functional
[19] = system: Escherichia coli; assay: Antibacterial activity against multi-drug resistant Escherichia coli CCARM 1009 assessed as inhibition of bacterial growth incubated for 18 hrs by microplate reader analysis; type: functional
[20] = system: Staphylococcus aureus; assay: Antibacterial activity against multi-drug resistant Staphylococcus aureus CCARM 3090 assessed as inhibition of bacterial growth incubated for 18 hrs by microplate reader analysis; type: functional
[21] = system: Salmonella typhimurium; assay: Antibacterial activity against multi-drug resistant Salmonella Typhimurium CCARM 8250 assessed as inhibition of bacterial growth incubated for 18 hrs by microplate reader analysis; type: functional, Salmonella enterica subsp. enterica serovar Typhimurium; details: Salmonella enterica
[22] = system: Enterococcus faecalis; assay: Antibacterial activity against multi-drug resistant Enterococcus faecalis CCARM 5172 assessed as inhibition of bacterial growth incubated for 18 hrs by microplate reader analysis; type: functional
[23] = system: Enterococcus faecium; assay: Antibacterial activity against multi-drug resistant Enterococcus faecium CCARM 5203 assessed as inhibition of bacterial growth incubated for 18 hrs by microplate reader analysis; type: functional
[24] = system: MDA-MB-231; assay: Cytotoxicity against human MDA-MB-231 cells; type: functional, cell-based
[25] = system: MDA-MB-468; assay: Cytotoxicity against human MDA-MB-468 cells; type: functional, cell-based
[26] = system: BT-549; assay: Cytotoxicity against human BT-549 cells; type: functional, cell-based
[27] = system: HepG2; assay: Cytotoxicity against human HepG2 cells assessed as reduction in cell viability incubated for 48 hrs by MTT assay; type: functional, cell-based; details: HepG2, 48 h
[28] = system: NCI-H460; assay: Cytotoxicity against human NCI-H460 cells assessed as reduction in cell viability incubated for 48 hrs by MTT assay; type: functional, cell-based; details: NCI-H460, 48 h
[29] = system: MDA-MB-231; assay: Cytotoxicity against human MDA-MB-231 cells assessed as reduction in cell viability incubated for 48 hrs by MTT assay; type: functional, cell-based; details: MDA-MB-231, 48 h
[30] = system: MCF-10A; assay: Cytotoxicity against human MCF-10A cells assessed as reduction in cell viability incubated for 48 hrs by MTT assay; type: functional, cell-based
[31] = system: MDA-MB-435; assay: Cytotoxicity against human MDA-MB-435 cells assessed as reduction in cell viability incubated for 48 hrs by MTT assay; type: functional, cell-based; details: MDA-MB-435, 48 h
[32] = system: HCT-116; assay: Cytotoxicity against human HCT-116 cells assessed as reduction in cell viability incubated for 48 hrs by MTT assay; type: functional, cell-based; details: HCT-116, 48 h
[33] = system: Candida albicans; assay: Antifungal activity against Candida albicans assessed as reduction in […] growth measured for 12 hrs by broth micro-dilution method; type: functional
[34] = system: Staphylococcus aureus; assay: Antibacterial activity against Staphylococcus aureus ATCC 43300 assessed as reduction in bacterial growth measured for 12 hrs by broth micro-dilution method; type: functional
[35] = system: PC-3; assay: Cytotoxicity against human PC-3 cells; type: functional, cell-based
[36] = system: A2780; assay: Cytotoxicity against human A2780 cells assessed as reduction in cell growth by SRB assay; type: functional, cell-based
[37] = system: PC-3; assay: Cytotoxicity against human PC-3 cells assessed as reduction in cell growth by SRB assay; type: functional, cell-based
[38] = system: MDA-MB-231; assay: Cytotoxicity against human MDA-MB-231 cells by SRB assay; type: functional, cell-based
[39] = system: SK-HEP1; assay: Cytotoxicity against human SK-HEP1 cells by SRB assay; type: functional, cell-based
[40] = system: SNU-638; assay: Cytotoxicity against human SNU-638 cells by SRB assay; type: functional, cell-based
[41] = system: A549; assay: Cytotoxicity against human A549 cells by SRB assay; type: functional, cell-based
[42] = system: HCT-116; assay: Cytotoxicity against human HCT-116 cells by SRB assay; type: functional, cell-based
[43] = system: HepG2; assay: Cytotoxicity against human HepG2 cells assessed as reduction in cell growth incubated for 72 hrs by SRB assay; type: functional, cell-based; details: HepG2, 72 h
[44] = system: SF-268; assay: Cytotoxicity against human SF-268 cells assessed as reduction in cell growth incubated for 72 hrs by SRB assay; type: functional, cell-based; details: SF-268, 72 h
[45] = system: MCF7; assay: Cytotoxicity against human MCF7 cells assessed as reduction in cell growth incubated for 72 hrs by SRB assay; type: functional, cell-based; details: MCF7, 72 h
[46] = system: A549; assay: Cytotoxicity against human A549 cells assessed as reduction in cell growth incubated for 72 hrs by SRB assay; type: functional, cell-based; details: A549, 72 h

Compound: CC1=CC(=O)[C@]2(O)[C@](O)(CC[C@@]34O[C@@]23C(=O)c2cccc(O)c2C4=O)C1
IC50 [1]: 0.32 µM
IC50 [2]: 0.32 µM
IC50 [3]: 0.32 µM
IC50 [4]: 0.32 µM
IC50 [5]: 0.32 µM

GI50 [6]: 0.01 µM
GI50 [7]: 0.01 µM
GI50 [8]: 0.01 µM
GI50 [9]: 0.01 µM
GI50 [10]: 0.01 µM
Compound: CSC1=CC2=C(C(=O)c3ccc([C@H]4C[C@@H](O[C@H]5CC[C@H](O[C@H]6C[C@@H](O)[C@H](O)[C@@H](C)O6)[C@H](C)O5)[C@H](O)CO4)c(O)c3C2=O)[C@@]2(O)C(=O)C[C@](C)(O)C[C@@]12O
GI50 [11]: 0.01 µM

Compound: Cc1cc(O)c2cc3c(c(O)c2c1)C(=O)c1ccc([C@H]2C[C@@H](O)[C@H](O[C@H]4CC[C@H](OC5=CC(=O)[C@@H](C)OC5)[C@H](C)O4)[C@@H](C)O2)c(O)c1C3=O
IC50 [12]: 3 µM

Compound: CO[C@@H]1C[C@@H](O[C@H]2C=C(C)[C@@H](O)[C@]3(O)[C@@H](OC(=O)O)[C@@H](O)C4=C(C(=O)c5ccc([C@H]6C[C@@H](O[C@H]7C[C@](C)(O)[C@H](O[C@H]8CC[C@H](OC(N)=O)[C@@H](C)O8)[C@@H](C)O7)[C@@H](O)[C@@H](C)O6)c(O)c5C4=O)[C@]23O)O[C@@H](C)[C@H]1O
MIC [13]: 16 mg/L
MIC [14]: 8 mg/L
MIC [15]: 16 mg/L
MIC [16]: 16 mg/L
MIC [17]: 16 mg/L

Compound: CC(C)C1(O)CC(=O)c2c(cc(O)c3c2C(=O)c2cccc(O)c2C3=O)C1 (stereo not given)
MIC [18]: 3.12 mg/L

Compound: C[C@@H]1O[C@@H](O[C@H]2[C@H](O)C[C@H](c3ccc4c(c3O)C(=O)c3ccc(C[C@@](C)(O)CC(=O)O)c(O)c3C4=O)O[C@@H]2C)CC[C@@H]1O
MIC [19]: 3.12 mg/L (≈ 5.19 µM)
MIC [20]: 3.12 mg/L (≈ 5.19 µM)
MIC [21]: 3.12 mg/L (≈ 5.19 µM)
MIC [22]: 3.12 mg/L (≈ 5.19 µM)
MIC [23]: 3.12 mg/L (≈ 5.19 µM)

Compound: CC(C)C1(O)CC(=O)c2c(cc(O)c3c2C(=O)c2cccc(O)c2C3=O)C1=O (stereo not given)
MIC [18]: 3.12 mg/L

Compound: CN[C@@H]1C[C@H](c2c(O)c3c(c4c(O)cc(C)cc24)C(=O)c2cccc(O)c2C3=O)O[C@H](C)[C@H]1O
IC50 [24]: 0.6 µM
IC50 [25]: 0.6 µM
IC50 [26]: 0.6 µM

Compound: C[C@@H]1O[C@@H](O[C@H]2CC[C@H](O[C@H]3[C@H](O)C[C@H](c4ccc5c(c4O)C(=O)c4ccc6c(c4C5=O)C(=O)C[C@](C)(O)C6)O[C@@H]3C)O[C@H]2C)CCC1=O
IC50 [27]: 2.4 µM
IC50 [28]: 2.4 µM
IC50 [29]: 2.4 µM
IC50 [30]: 2.4 µM
IC50 [31]: 2.4 µM
IC50 [32]: 2.4 µM

MIC [33]: 20 µM (≈ 9.29 µg/mL)
MIC [34]: 20 µM (≈ 9.29 µg/mL)
Compound: CC(=O)C[C@H](SCc1cc2cc(C)cc(O)c2c2c1C(=O)c1c(O)cccc1C2=O)C(=O)O

Compound: CO[C@@H]1C[C@@H](O[C@H]2C=C(C)C[C@]3(O)[C@@H](OC(=O)O)[C@@H](O)C4=C(C(=O)c5ccc([C@H]6C[C@@H](O[C@H]7C[C@](C)(O)[C@H](O[C@H]8CC[C@H](OC(N)=O)[C@@H](C)O8)[C@@H](C)O7)[C@@H](O)[C@@H](C)O6)c(O)c5C4=O)[C@]23O)O[C@@H](C)[C@H]1O
MIC [13]: 16 mg/L
MIC [14]: 8 mg/L
MIC [15]: 16 mg/L
MIC [16]: 16 mg/L
MIC [17]: 16 mg/L

Compound: C[C@@]12CC(=O)[C@@]3(O)[C@](O)(CC[C@H]4C(=O)c5c(O)cccc5[C@@H](O)[C@@]43O1)C2
IC50 [35]: 1.38 µM

Compound: CC(C)c1cc(=O)c2c(cc(O)c3c(=O)c4c(O)cccc4c(=O)c32)c1=O
MIC [18]: 3.12 mg/L

MIC [33]: 20 µM (≈ 9.31 µg/mL)
MIC [34]: 20 µM (≈ 9.31 µg/mL)
Compound: CC(=O)N[C@@H](CSc1cc2cc(C)cc(O)c2c2c1C(=O)c1c(O)cccc1C2=O)C(=O)O
IC50 [36]: 10.2 µM
IC50 [37]: 19.4 µM

Compound: COc1cccc2c1C(=O)O[C@H]2c1c(O)ccc2c1C(=O)C[C@@H](C)[C@@H]2O
IC50 [38]: 6.7 µM
IC50 [39]: 6.7 µM
IC50 [40]: 6.7 µM
IC50 [41]: 6.7 µM
IC50 [42]: 6.7 µM

Compound: Cc1cc(O)c2c(c1)C1c3c-2c(O)c2cccc(O)c2c3OC(=O)C1c1c[nH]c2ccccc12 (stereo not given)
IC50 [43]: 7 µM
IC50 [44]: 7 µM
IC50 [45]: 7 µM
IC50 [46]: 7 µM
